For 37 compounds, EC50 results are on record in US20230339886A1 (University of Florida Research Foundation, Incorporated, priority 2020, published 2023).

By EC50 is commonly meant the concentration that produces a half-maximal response.

Each structure is given as a SMILES string.

T1 sequence (P20393 with tags, fused parts or gaps DEL324-422): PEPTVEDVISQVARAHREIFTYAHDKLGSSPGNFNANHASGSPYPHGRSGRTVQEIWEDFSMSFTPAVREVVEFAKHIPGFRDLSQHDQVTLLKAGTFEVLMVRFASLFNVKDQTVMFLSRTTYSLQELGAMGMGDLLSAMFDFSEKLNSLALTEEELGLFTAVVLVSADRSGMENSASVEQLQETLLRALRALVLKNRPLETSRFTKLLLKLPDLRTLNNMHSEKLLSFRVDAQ
T1 sequence (Q9Y618 2335-2356 partner limits assumed): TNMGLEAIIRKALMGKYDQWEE

The assay concerns the target T1, REV-ERBα LBD (human; residues 281-614 Δ324-422) (Homo sapiens, UniProt P20393, DEL324-422).
T1 construct: 6×Histag-REV-ERBα LBD (human; residues 281-614 Δ324-422); made in house; host or cells: Escherichia coli
Put plainly: TR-FRET corepressor interaction assay (REV-ERBα LBD, FITC-SMRT peptide). The class given is biochemical. Conditions: Table 2, read-out: REVERBα agonism (EC50 class, FRET assay). The gist of the method: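 Compound serial dilutions (in DMSO, triplicate) incubated 2 h at 4 °C; Tb donor excited at 340 nm, emission read at 495 nm and FITC acceptor at 520 nm. TR-FRET ratio (520/495 nm) plotted against ligand concentration and fitted to a sigmoidal dose-response curve.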
As for `CCn1cc(CCNS(=O)(=O)N(C)C)c2ccc(-c3ccncc3)cc21` [Example 132, N′-{2-[6-(pyridin-4-yl)-1-ethyl-1H-indol-3-yl]ethyl}-N,N-dimethylsulfuric diamide], the half-maximal effective concentration (EC50) is more than 3 µM.

With `CCN(CCc1cn(CC)c2cc(-c3ccncc3)ccc12)S(=O)(=O)N(C)C` [Example 133, N′-{2-[6-(pyridin-4-yl)-1-ethyl-1H-indol-3-yl]ethyl}-N′-ethyl-N,N-dimethylsulfuric diamide], the EC50 was 0.5 to 3 µM.

As for `CN(C)S(=O)(=O)NCCc1cn(C2CC2)c2cc(-c3ccncc3)ccc12` [Example 134, N′-{2-[6-(pyridin-4-yl)-1-cyclopropyl-1H-indol-3-yl]ethyl}-N,N-dimethylsulfuric diamide], the EC50 was more than 3 µM.

As for `CC(C)Cn1cc(CCNS(=O)(=O)N(C)C)c2cc(Br)ccc21` [Example 135, ({2-[5-bromo-1-(2-methylpropyl)-1H-indol-3-yl]ethyl}sulfamoyl)dimethylamine], the EC50 is less than 0.5 µM.

In the case of `CC(C)Cn1cc(CCNS(=O)(=O)N(C)C)c2c(Br)cccc21` [Example 136, ({2-[4-bromo-1-(2-methylpropyl)-1H-indol-3-yl]ethyl}sulfamoyl)dimethylamine], the EC50 lay within 0.5 to 3 µM.

For `CN(C)S(=O)(=O)NCCc1cn(Cc2ccccc2Br)c2cc(-c3ccncc3)ccc12` [Example 140, N′-{2-[6-(pyridin-4-yl)-1-(2-bromobenzyl)-1H-indol-3-yl]ethyl}-N,N-dimethylsulfuric diamide], the EC50 is more than 3 µM.

As for `CN(C)S(=O)(=O)NCCc1cn(Cc2cccc(Cl)c2)c2cc(-c3ccncc3)ccc12` [Example 141, N-{2-[6-(pyridin-4-yl)-1-(3-chlorobenzyl)-1H-indol-3-yl]ethyl}-N,N-dimethylsulfuric diamide], the half-maximal effective concentration (EC50) was less than 0.5 µM.

Consider `CN(C)S(=O)(=O)NCCc1cn(Cc2cccc(C(F)(F)F)c2)c2cc(-c3ccncc3)ccc12` [Example 142, N-{2-[6-(pyridin-4-yl)-1-(3-trifluoromethylbenzyl)-1H-indol-3-yl]ethyl}-N,N-dimethyl-sulfuric diamide], for which the EC50 lay in the range of 0.5 to 3 µM.

For the compound `CN(C)S(=O)(=O)NCCc1cn(Cc2cccc(Br)c2)c2cc(-c3ccncc3)ccc12` [Example 143, N-{2-[6-(pyridin-4-yl)-1-(3-bromobenzyl)-1H-indol-3-yl]ethyl}-N,N-dimethylsulfuric diamide], the EC50 is less than 0.5 µM.

As to `CN(C)S(=O)(=O)NCCc1cn(Cc2cccc(F)c2)c2cc(-c3ccncc3)ccc12` [Example 144, N-{2-[6-(pyridin-4-yl)-1-(3-fluorobenzyl)-1H-indol-3-yl]ethyl}-N,N-dimethylsulfuric diamide], the EC50 is less than 0.5 µM.

On to `CN(C)S(=O)(=O)NCCc1cn(Cc2cccc(I)c2)c2cc(-c3ccncc3)ccc12` [Example 145, N-{2-[6-(pyridin-4-yl)-1-(3-iodobenzyl)-1H-indol-3-yl]ethyl}-N,N-dimethylsulfuric diamide], for which the 50% effective concentration (EC50) is more than 3 µM.

Turning to `CN(C)S(=O)(=O)NCCc1cn(Cc2ccc(F)cc2)c2cc(-c3ccncc3)ccc12` [Example 146, N-{2-[6-(pyridin-4-yl)-1-(4-fluorobenzyl)-1H-indol-3-yl]ethyl}-N,N-dimethylsulfuric diamide], the EC50 lay within 0.5 to 3 µM.

As for `COc1cccc(Cn2cc(CCNS(=O)(=O)N(C)C)c3ccc(-c4ccncc4)cc32)c1` [Example 147, N-{2-[6-(pyridin-4-yl)-1-(3-methoxybenzyl)-1H-indol-3-yl]ethyl}-N,N-dimethylsulfuric diamide], the EC50 is 0.5 to 3 µM.

Consider `CN(C)S(=O)(=O)NCCc1cn(Cc2cccc([N+](=O)[O-])c2)c2cc(-c3ccncc3)ccc12` [Example 148, N-{2-[6-(pyridin-4-yl)-1-(3-nitrobenzyl)-1H-indol-3-yl]ethyl}-N,N-dimethylsulfuric diamide], for which the EC50 fell in the range of 0.5 to 3 µM.

With `CN(C)S(=O)(=O)NCCc1cn(Cc2ccc(F)cc2F)c2cc(-c3ccncc3)ccc12` [Example 149, N-{2-[6-(pyridin-4-yl)-1-(2,4-difluorobenzyl)-1H-indol-3-yl]ethyl}-N,N-dimethylsulfuric diamide], the EC50 fell in the range of 0.5 to 3 µM.

As for `CN(C)S(=O)(=O)NCCc1cn(Cc2ccccc2F)c2cc(-c3ccncc3)ccc12` [Example 150, N-{2-[6-(pyridin-4-yl)-1-(2-fluorobenzyl)-1H-indol-3-yl]ethyl}-N,N-dimethylsulfuric diamide], the half-maximal effective concentration (EC50) was 0.5 to 3 µM.

Turning to `CN(C)S(=O)(=O)NCCc1cn(C(=O)c2cc(Cl)cc(Cl)c2)c2cc(-c3ccncc3)ccc12` [Example 151, N′-{2-[6-(pyridin-4-yl)-1-(3,5-dichlorobenzoyl)-1H-indol-3-yl]ethyl}-N,N-dimethylsulfuric diamide], the EC50 was more than 3 µM.

With `CN(C)S(=O)(=O)NCCn1cc(CC(F)(F)F)c2cc(Cl)ccc21` [Example 152, N-{2-[5-chloro-3-(2,2,2-trifluoroethyl)-1H-indol-1-yl]ethyl}-N,N-dimethylsulfuric diamide], the EC50 is 0.5 to 3 µM.

Regarding `CN(C)S(=O)(=O)NCCn1cc(CC(F)(F)C(F)(F)F)c2cc(Cl)ccc21` [Example 153, N-{2-[5-chloro-3-(2,2,3,3,3-pentafluoropropyl)-1H-indol-1-yl]ethyl}-N,N-dimethylsulfuric diamide], the EC50 lay within 0.5 to 3 µM.

For `CN(C)S(=O)(=O)NCCc1cn(CCc2ccccc2)c2cc(-c3ccncc3)ccc12` [Example 154, N′-{2-[6-(pyridin-4-yl)-1-phenethyl-1H-indol-3-yl]ethyl}-N,N-dimethylsulfuric diamide], the 50% effective concentration (EC50) is 0.5 to 3 µM.

In the case of `CN(C)S(=O)(=O)NCCc1cn(CC(F)(F)F)c2cc(Br)ccc12` [Example 158, ({2-[6-bromo-1-(2,2,2-trifluoroethyl)-1H-indol-3-yl]ethyl}sulfamoyl)dimethylamine], the concentration giving a half-maximal response (EC50) was in the range of 0.5 to 3 µM.

Consider `CC(c1ccccc1)n1cc(CCNS(=O)(=O)N(C)C)c2ccc(Br)cc21` (stereo not shown) [Example 159, ({2-[6-bromo-1-(1-phenylethyl)-1H-indol-3-yl]ethyl}sulfamoyl)dimethylamine], for which the EC50 was 0.5 to 3 µM.

For the compound `CN(C)CCn1cc(CCNS(=O)(=O)N(C)C)c2ccc(Br)cc21` [Example 160, [2-(6-bromo-3-{2-[(dimethylsulfamoyl)amino]ethyl}-1H-indol-1-yl)ethyl]dimethylamine], the EC50 was more than 3 µM.

Take `CN(C)S(=O)(=O)NCCc1cn(Cc2ccccn2)c2cc(Br)ccc12` [Example 161, [(2-{6-bromo-1-[(pyridin-2-yl)methyl]-1H-indol-3-yl}ethyl)sulfamoyl]dimethylamine]: the EC50 lay in the range of 0.5 to 3 µM.

In the case of `CN(C)S(=O)(=O)NCCc1cn(Cc2ccncc2)c2cc(Br)ccc12` [Example 162, [(2-{6-bromo-1-[(pyridin-4-yl)methyl]-1H-indol-3-yl}ethyl)sulfamoyl]dimethylamine], the EC50 fell in the range of 0.5 to 3 µM.

`CN(C)S(=O)(=O)NCCc1cn(Cc2cccnc2)c2cc(Br)ccc12` [Example 163, [(2-{6-bromo-1-[(pyridin-3-yl)methyl]-1H-indol-3-yl}ethyl)sulfamoyl]dimethylamine]: the EC50 fell in the range of 0.5 to 3 µM.

Turning to `COC(=O)Cn1cc(CCNS(=O)(=O)N(C)C)c2ccc(Br)cc21` [Example 164, methyl 2-(6-bromo-3-(2-((N,N-dimethylsulfamoyl)amino)ethyl)-1H-indol-1-yl)acetate], the EC50 was more than 3 µM.

Consider `CN(C)S(=O)(=O)NCCc1cn(CC(C)(C)C)c2cc(Br)ccc12` [Example 165, ({2-[6-bromo-1-(2,2-dimethylpropyl)-1H-indol-3-yl]ethyl}sulfamoyl)dimethylamine], for which the EC50 lay within 0.5 to 3 µM.

With `CNC(=O)Cn1cc(CCNS(=O)(=O)N(C)C)c2ccc(Br)cc21` [Example 166, 2-(6-bromo-3-(2-((N,N-dimethylsulfamoyl)amino)ethyl)-1H-indol-1-yl)-N-methylacetamide], the EC50 is 0.5 to 3 µM.

Consider `CN(C)C(=O)Cn1cc(CCNS(=O)(=O)N(C)C)c2ccc(Br)cc21` [Example 167, 2-(6-bromo-3-(2-((N,N-dimethylsulfamoyl)amino)ethyl)-1H-indol-1-yl)-N,N-dimethylacetamide], for which the EC50 lay in the range of 0.5 to 3 µM.

`CC(C)Cn1cc(CCNS(=O)(=O)N(C)C)c2cc(F)c(Br)cc21` [Example 168, ({2-[6-bromo-5-fluoro-1-(2-methylpropyl)-1H-indol-3-yl]ethyl}sulfamoyl)dimethylamine]: the EC50 was less than 0.5 µM.

Regarding `Cc1cccc2c(CCNS(=O)(=O)N(C)C)cn(CC(C)C)c12` [Example 169, dimethyl({2-[7-methyl-1-(2-methylpropyl)-1H-indol-3-yl]ethyl}sulfamoyl)amine], the EC50 is 0.5 to 3 µM.

For `Cc1cc2c(cc1F)c(CCNS(=O)(=O)N(C)C)cn2CC(C)C` [Example 170, ({2-[5-fluoro-6-methyl-1-(2-methylpropyl)-1H-indol-3-yl]ethyl}sulfamoyl)dimethylamine], the EC50 was less than 0.5 µM.

Take `CC(C)S(=O)(=O)NCCn1cc(CC(C)(C)C)c2cc(Br)ccc21` [Example 171, N-(2-(5-bromo-3-neopentyl-1H-indol-1-yl)ethyl)propane-2-sulfonamide]: the EC50 lay in the range of 0.5 to 3 µM.

Regarding `CN(C)S(=O)(=O)NCCn1cc(CCC(F)(F)F)c2cc(Br)ccc21` [Example 172, N-{2-[5-bromo-3-(3,3,3-trifluoropropyl)-1H-indol-1-yl]ethyl}-N,N-dimethylsulfuric diamide], the EC50 lay within 0.5 to 3 µM.

As to `CC(C)Cc1cn(CCS(=O)(=O)C(C)C)c2ccc(Br)cc12` [Example 173, 5-bromo-3-isobutyl-1-(2-(isopropylsulfonyl)ethyl)-1H-indole], the EC50 was 0.5 to 3 µM.

Consider `CC(C)Cc1cn(CCS(=O)(=O)C(C)(C)C)c2ccc(Br)cc12` [Example 174, 5-bromo-1-(2-(tert-butylsulfonyl)ethyl)-3-isobutyl-1H-indole], for which the EC50 lay within 0.5 to 3 µM.
